Structures can show the parent of a compound that is named as a salt.

The target of this assay is CK2A1 (CK2α/β) (Homo sapiens, UniProt P68400). Nature of the assay: CK2 kinase assay, CK2A1 (CK2α/β). It counts as biochemical. The settings on record: Table A; read-out: CK2A1 (CK2α/β) (IC50).
Sequence of CK2A1 (CK2α/β) (P68400 whole entry, species assumed): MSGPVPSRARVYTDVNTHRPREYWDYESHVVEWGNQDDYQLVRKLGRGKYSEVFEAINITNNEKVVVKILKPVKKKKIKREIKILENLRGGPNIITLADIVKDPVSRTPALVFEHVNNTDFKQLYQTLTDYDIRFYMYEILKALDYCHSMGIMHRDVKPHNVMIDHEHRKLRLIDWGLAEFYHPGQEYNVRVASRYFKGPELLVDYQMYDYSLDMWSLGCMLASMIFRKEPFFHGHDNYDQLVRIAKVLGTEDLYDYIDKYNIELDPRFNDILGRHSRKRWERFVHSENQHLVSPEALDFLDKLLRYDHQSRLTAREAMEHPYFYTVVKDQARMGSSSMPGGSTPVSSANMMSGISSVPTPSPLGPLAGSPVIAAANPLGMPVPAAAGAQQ
Sequence of CK2A1 (CK2α/β) (P67870 whole entry partner, species assumed): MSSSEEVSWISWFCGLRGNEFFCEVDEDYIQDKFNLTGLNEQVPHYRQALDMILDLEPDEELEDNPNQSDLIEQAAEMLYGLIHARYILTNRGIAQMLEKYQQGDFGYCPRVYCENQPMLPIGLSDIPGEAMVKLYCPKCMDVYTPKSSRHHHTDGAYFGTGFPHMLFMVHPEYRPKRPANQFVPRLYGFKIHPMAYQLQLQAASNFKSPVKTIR
In the case of `CCNc1nc(Nc2ccc3c(c2)c(C#N)cn3C2CCN(CC(O)CF)CC2)nn2c(C#N)cnc12` (racemic) [Example 824, (+/−)-2-((3-cyano-1-(1-(3-fluoro-2-hydroxypropyl)piperidin-4-yl)-1H-indol-5-yl)amino)-4-(ethylamino)imidazo[2,1-f][1,2,4]triazine-7-carbonitrile], the IC50 was found to be 0.8 nM.
The result for `CCNc1nc(Nc2ccc3c(c2)c(C#N)cn3C2CCN(C3COCC3O)CC2)nn2c(C#N)cnc12` (racemic) [Example 825, (+/−)-2-((3-cyano-1-(1-(4-hydroxytetrahydrofuran-3-yl)piperidin-4-yl)-1H-indol-5-yl)amino)-4-(ethylamino)imidazo[2,1-f][1,2,4]triazine-7-carbonitrile] reads 0.3 nM; that for `CCNc1nc(Nc2cc(C#N)cc(N3CC[C@@H]4[C@@H](C3)OC(=O)N4C3COC3)c2Cl)nn2c(C#N)cnc12` (racemic) [Example 838, (+/−)-2-((2-chloro-5-cyano-3-((3aR,7aR)-1-(oxetan-3-yl)-2-oxohexahydrooxazolo[5,4-c]pyridin-5(2H)-yl)phenyl)amino)-4-(ethylamino)imidazo[2,1-f][1,2,4]triazine-7-carbonitrile], 0.54 nM.
For `CN(C)C(=O)C1CN(c2cc(C#N)cc(Nc3nc(NC4CC4)c4ncc(C#N)n4n3)c2Cl)CCN1CC(O)CF` (single isomer, unassigned) [Example 315, (+/−) 4-(2-chloro-5-cyano-3-((7-cyano-4-(cyclopropylamino)imidazo [2,1-f][1,2,4]triazin-2-yl)amino)phenyl)-1-(3-fluoro-2-hydroxypropyl)-N,N-dimethyl-2-piperazinecarboxamide], the IC50 was 0.37 nM.
Then `CN(C)C(=O)C1CN(c2cc(C#N)cc(Nc3nc(NC4CC4)c4ncc(C#N)n4n3)c2Cl)CCN1CC(O)CF` (single isomer, unassigned) [Example 316, (+/−) 4-(2-chloro-5-cyano-3-((7-cyano-4-(cyclopropylamino)imidazo [2,1-f][1,2,4]triazin-2-yl)amino)phenyl)-1-(3-fluoro-2-hydroxypropyl)-N,N-dimethyl-2-piperazinecarboxamide], with 1.87 nM; and `N#Cc1cc(Nc2nc(NC3CC3)c3ncc(C#N)n3n2)c(Cl)c(C2CCN(C3CCC3O)CC2)c1` (single isomer, unassigned) [Example 645, Cis and trans 2-((2-chloro-5-cyano-3-(1-(2-hydroxycyclobutyl)piperidin-4-yl)phenyl)amino)-4-(cyclopropylamino)imidazo[2,1-f][1,2,4]triazine-7-carbonitrile], with 1.75 nM.
The result for `N#Cc1cc(Nc2nc(NC3CC3)c3ncc(C#N)n3n2)c(Cl)c(C2CCN(C3CCC3O)CC2)c1` (single isomer, unassigned) [Example 646, Cis and trans 2-((2-chloro-5-cyano-3-(1-(2-hydroxycyclobutyl)piperidin-4-yl)phenyl)amino)-4-(cyclopropylamino)imidazo[2,1-f][1,2,4]triazine-7-carbonitrile] reads 1.48 nM.
The result for `N#Cc1cc(Nc2nc(NC3CC3)c3ncc(C#N)n3n2)c(Cl)c([C@H]2CCC[C@@H](N3CC(F)C3)C2)c1` (single isomer, unassigned) [Example 729] reads 1.68 nM; that for `N#Cc1cc(Nc2nc(NC3CC3)c3ncc(C#N)n3n2)c(Cl)c([C@H]2CCC[C@@H](N3CC(O)C3)C2)c1` (single isomer, unassigned) [Example 730], 1.22 nM; that for `N#Cc1cc(Nc2nc(NC3CC3)c3ncc(C#N)n3n2)c(Cl)c([C@H]2CCC[C@@H](N3CC(O)C3)C2)c1` (single isomer, unassigned) [Example 731], 1.46 nM.
With `CC(CC(C)c1cc(Cl)c(Nc2nc(NC3CC3)c3ncc(C#N)n3n2)cc1C#N)NCCC(F)(F)F` (single isomer, unassigned) [Example 734, 2-[(2-chloro-5-cyano-4-{4-[(3,3,3-trifluoropropyl)amino]pentan-2-yl}phenyl)amino]-4-(cyclopropylamino) imidazo[2,1-f][1,2,4]triazine-7-carbonitrile], the IC50 stood at 6.07 nM.
On to `CC(CC(C)c1cc(Cl)c(Nc2nc(NC3CC3)c3ncc(C#N)n3n2)cc1C#N)NCCC(F)(F)F` (single isomer, unassigned) [Example 735, 2-[(2-chloro-5-cyano-4-{4-[(3,3,3-trifluoropropyl)amino]pentan-2-yl}phenyl)amino]-4-(cyclopropylamino)imidazo [2,1-f][1,2,4]triazine-7-carbonitril], for which the IC50 came to 4.37 nM.
For the molecule `COC(=O)N[C@H]1CCN(c2cc(C#N)cc(Nc3nc(NC4CC4)c4ncc(C#N)n4n3)c2Cl)C[C@@H]1NC1COC1` (single isomer, unassigned) [Example 744], the IC50 worked out at 1.12 nM.
Then `COC(=O)N[C@H]1CCN(c2cc(C#N)cc(Nc3nc(NC4CC4)c4ncc(C#N)n4n3)c2Cl)C[C@H]1NC1COC1` (single isomer, unassigned) [Example 745], with 1.24 nM; and `CCNc1nc(-n2cc([C@H]3C[C@@H]3CN(C)C)c3ccc(C#N)cc32)nn2c(C#N)cnc12` (single isomer, unassigned) [Example 774], with 4.05 nM; and `CCNc1nc(-n2cc([C@@H]3C[C@H]3CN(C)C)c3ccc(C#N)cc32)nn2c(C#N)cnc12` (single isomer, unassigned) [Example 775], with 2.35 nM.
The result for `CCNc1nc(Nc2cc(C#N)cc(N3CC[C@@H]4[C@@H](C3)OC(=O)N4[C@H]3CCOC3)c2Cl)nn2c(C#N)cnc12` (single isomer, unassigned) [Example 841] reads 2.31 nM.
The result for `CCNc1nc(Nc2cc(C#N)cc(N3CC[C@@H]4[C@@H](C3)OC(=O)N4[C@H]3CCOC3)c2Cl)nn2c(C#N)cnc12` (single isomer, unassigned) [Example 842] reads 2.05 nM; that for `CCNc1nc(Nc2cc(C#N)cc(N3CC[C@@H]4[C@@H](C3)OC(=O)N4[C@H]3CCOC3)c2Cl)nn2c(C#N)cnc12` (single isomer, unassigned) [Example 843], 2.16 nM; that for `CCNc1nc(Nc2cc(C#N)cc(N3CC[C@@H]4[C@@H](C3)OC(=O)N4[C@H]3CCOC3)c2Cl)nn2c(C#N)cnc12` (single isomer, unassigned) [Example 844], 1.83 nM.
On to `COC(=O)N[C@H]1CN(C2CN(c3cc(C#N)cc(Nc4nc(NC5CC5)c5ncc(C#N)n5n4)c3Cl)C2)CC1OC` (stereo in doubt) [Example 298, methyl ((3S,4R)-1-(1-(2-chloro-5-cyano-3-((7-cyano-4-(cyclopropylamino)imidazo[2,1-f][1,2,4]triazin-2-yl)amino)phenyl)-3-azetidinyl)-4-methoxy-3-pyrrolidinyl)carbamate], for which the IC50 worked out at 0.49 nM.
Then `CO[C@@H]1CN(c2cc(C#N)cc(Nc3nc(NC4CC4)c4ncc(C#N)n4n3)c2Cl)CC1NC1COC1` (stereo in doubt) [Example 302, 2-((2-chloro-5-cyano-3-((3R,4S)-3-methoxy-4-(oxetan-3-ylamino)pyrrolidin-1-yl)phenyl)amino)-4-(cyclopropylamino)imidazo[2,1-f][1,2,4]triazine-7-carbonitrile, HCl], with 1.7 nM.

These data come from patent US9273057B2 (Bristol-Myers Squibb Company, priority 2012, dated 2016).
